Test results from patent publication US20230302014A1, “USES OF GLUCOCORTICOID RECEPTOR (GR) ANTAGONIST AND ANDROGEN RECEPTOR (AR) DEGRADER COMBINATIONS” (ORIC Pharmaceuticals, Inc., priority 2020, published 2023).

Assays:
Format in all cases: cell-based, Human
AR mRNA = experiment: RT-qPCR of AR mRNA after dose-dependent AR degrader treatment; settings: LNCaP and CWR22PC cells, 3 days, increasing doses 3-1000 nM
Description: (§1) LNCaP and CWR22PC cells were plated in seven 15-cm dishes (Corning#353025) at a density of 5 million cells per dish in RPMI-1640 media supplemented with 10% charcoal-stripped serum (CSS; OmegaScientific#FB4). After 24 hours, the cells were treated with 0, 3, 10, 30, 100, 300 and 1000 nM of ARD1 or ARD2 and incubated at 37° C. for 3 days. The cells were then trypsinized (Corning#25-053-CI) and harvested for transcript (RT-qPCR) and protein (western blot) analysis.
(§2) Adherent cells or cell pellets harvested for mRNA analysis were first washed once with PBS and then resuspended in 600 µL of RLT lysis buffer (Qiagen Inc.) supplemented with 1% of betamercaptoethanol. RNA was extracted by QIAcube using the RNeasy Mini QIAcube kit (Qiagen#74116) according to manufacturer’s instructions. The extracted RNA samples were then quantified using a Nanodrop 8000 Spectrophotometer. RT-qPCR reactions were set up in triplicate using 3 µL of 3 ng/ µL of RNA in 7 µL of pre-mixed SensiFAST™ SYBR No-ROX One-Step Kit reagents (BIOLINE# BIO-98005). The RT-qPCR reactions were run on a Bio-Rad CFX384 Real-Time PCR System and data was plotted with GraphPad Prism 8 software.
LNCaP and CWR22PC cells were plated in seven 10-cm dishes (Corning#353003) at a density of 2 million cells per dish in RPMI-1640 media supplemented with 10% charcoal-stripped serum (CSS; OmegaScientific#FB4). […]

GR protein = experiment: Western blot of GR protein after dose-dependent or time-dependent AR degrader treatment; settings: LNCaP and CWR22PC cells, 3 days, increasing doses 3-1000 nM
Description: as §1
(§3) 5 million of LNCaP and CWR22PC cells per dish were plated in five 15-cm dishes in 20 mL of RPMI-1640 media supplemented with 10% charcoal-stripped serum (CSS) and cultured at 37° C. for 24 hours. Cells were treated with 30 nM of dexamethasone and with 100 nM of ARD1 or ARD2 and maintained at 37° C. until harvest. On Day 0, 6, 10, 13, and 15, cells were trypsinized, cell pellets were washed with 1XPBS and then divided for mRNA and protein preparation.
Cell pellets were washed with PBS and lysed in RIPA buffer (VWR#AAJ63306-AK) supplemented with […] (VWR #AAJ65789-LQ). Resuspended cells were briefly sonicated for ~30 seconds using a probe sonicator and incubated on ice for 40 minutes, followed with centrifugation at 12,000 rpm for 15 minutes at 4° C. to collect the supernatant. Protein concentration was quantitated using Quick Start™ Bradford Protein Assay Kit (Bio-Rad #5000201). […]

[1] = test system: AR and GR target genes in CWR22PC cells; experiment: End of study (EOS) biomarker analysis by RT-qPCR; settings: CSS media, day 21 EOS, 0.1 nM R1881 + 1 µM ARV-110, + 30 nM dexamethasone, + 0.5 µM compound 1
Description: CWR22PC cells were seeded at a density of 2 × 10^5 cells/well in 6-well plates (Corning# 3516) in 2 mL of RPMI-1640 media supplemented with 10% charcoal-stripped serum (CSS) in duplicate. 24 hours later, cells were treated with 100 pM R1881, 30 nM dexamethasone, 0.5 µM compound 1, 1 µM of ARD1 or ARD2, or combinations thereof as indicated. Fresh media containing the indicated treatment was replaced every 5-7 days. Cell supernatant was collected on Day 12 and 19 and stored at -80° C. for PSA AlphaLISA assay. Cell images were taken on Day 12 and 19 using Leica DMi8 microscope (LEICA MICROSYSTEMS, INC. IL) with a 10X magnification. Cells were then trypsinized and cell numbers in each treatment group were counted three times, average counts were plotted with GraphPad Prism 8. Cell pellets were washed once with 1XPBS and then lysed in 600 µL RLT RNA lysis buffer and stored at -80° C. RNA was extracted for end of study (EOS) biomarker analysis for which the detailed procedures are described in the section RNA Extraction and RT-qPCR analysis.
as §2
CWR22PC cells were seeded at a density of 2 × 10^5 cells/well in 6-well plates (Corning# 3516) in 2 mL of RPMI-1640 media supplemented with 10% charcoal-stripped serum (CSS) in duplicate. […] Cells were then trypsinized and cell numbers in each treatment group were counted three times, average counts were plotted with GraphPad Prism 8. […]

AR protein = experiment: Western blot of AR protein after dose-dependent AR degrader treatment; settings: LNCaP and CWR22PC cells, 3 days, increasing doses 3-1000 nM
Description: Cell pellets were washed with PBS and lysed in RIPA buffer (VWR#AAJ63306-AK) supplemented with proteasome inhibitor cocktails (VWR #AAJ65789-LQ). Resuspended cells were briefly sonicated for ~30 seconds using a probe sonicator and incubated on ice for 40 minutes, followed with centrifugation at 12,000 rpm for 15 minutes at 4° C. to collect the supernatant. Protein concentration was quantitated using Quick Start™ Bradford Protein Assay Kit (Bio-Rad #5000201).
Proteins were transferred to nitrocellulose membranes using iBlot 2 Dry Blotting System (ThermoFisher#IB210021) at 20 V for 10 minutes.

GR mRNA = experiment: RT-qPCR of GR mRNA after time-dependent AR degrader treatment; settings: 30 nM dexamethasone, up to 15 days
Description: as §3, §2
2 million of LNCaP and CWR22PC cells per dish were plated in five 10-cm dishes in 10 mL of RPMI-1640 media supplemented with 10% charcoal-stripped serum (CSS) and cultured at 37° C. for 24 hours. […]

For N#Cc1ccc(O[C@H]2CC[C@H](NC(=O)c3ccc(N4CCC(CN5CCN(c6cc7c(cc6F)C(=O)N(C6CCC(=O)NC6=O)C7=O)CC5)CC4)nn3)CC2)cc1Cl (stereo partly drawn) [ARV-110, N-[trans-4-(3-chloro-4-cyanophenoxy)cyclohexyl]-6-[4-[[4-[2-(2,6-dioxo-3-piperidinyl)-6-fluoro-2,3-dihydro-1,3-dioxo-1H-isoindol-5-yl]-1-piperazinyl]methyl]-1-piperidinyl]-3-pyridazinecarboxamide], the AR transcript levels (AR mRNA) was “minimally impacting”, the GR protein levels (GR protein) was “minimally impacting” and the “R1881-induced target gene (biomarker) expression” value [1] was “blunts”. For the same compound, the AR protein levels (AR protein) was “degrades AR protein in a dose-dependent manner”, the GR transcript levels (GR mRNA; CWR22PC cells (moderate GR pre-treatment), 100 nM degrader) was “minimal” and the “upregulation of GR mRNA levels” value (GR mRNA; GR-negative LNCaP cells, 100 nM ARV-110) was ~ 7 fold.
